Consider seven compounds from ChEMBL document CHEMBL3856237, “Synthesis and antinociceptive activity of new 2-substituted 4-(trifluoromethyl)-5,6-dihydrobenzo[h]quinazolines” (Bioorg Med Chem Lett, 2016).

Series [1] relates to Mus musculus. Kind of series: Toxicity in Swiss mouse assessed as effect on spontaneous locomotory activity by measuring number of areas crossed at 100 mg/kg administered via oral gavage for 1 hr measured up to 5 mins post dose by open field test (reference value: 27 +/- 6 ). Particulars: in vivo. In kind it is organism-based.
Series [2] relates to Mus musculus. Put plainly: Toxicity in Swiss mouse assessed as effect on forced locomotory activity at 100 mg/kg administered via oral gavage for 1 hr measured up to 4 mins post dose by rotarod test. Type of series: organism-based. As to conditions: in vivo. On the technique in general: Falling from the rotarod earlier than controls is read as motor impairment.
For series [3], the system named is Mus musculus. Put plainly: Antinociceptive activity in Swiss mouse assessed as inhibition of capsaicin induced nociception by measuring paw licking time at 100 mg/kg administered via oral gavage for 1 hr followed by capsaicin challenge measured for 5 mins post dose relative to control. In kind it is functional.
The nature of series [4]: Solubility of the compound in DMSO. In kind it is physicochemical.
In series [5] the test system is Mus musculus. Put plainly: Antinociceptive activity in CFA-induced arthritic pain Swiss mouse model assessed as inhibition of mechanical hyperalgesia by measuring paw withdrawal threshold administered via oral gavage measured at 2 hrs post dose by Von Frey filament assay. Type of series: functional. Particulars: for ED50: read-out: ID50 (the source's name); for minimal effective dose: read-out: MED.

In series [6] the test system is Mus musculus. Kind of series: Antinociceptive activity in CFA-induced arthritic pain Swiss mouse model assessed as inhibition of mechanical hyperalgesia by measuring paw withdrawal threshold at 100 mg/kg administered via oral gavage measured at 2 hrs post dose by Von Frey filament assay relative to control. In kind it is functional.
For series [7], the system named is Mus musculus. Put plainly: Antinociceptive activity in CFA-induced arthritic pain Swiss mouse model assessed as inhibition of mechanical hyperalgesia by measuring paw withdrawal threshold at 100 mg/kg administered via oral gavage measured up to 2 hrs post dose by Von Frey filament assay. Type of series: functional, organism-based.
For series [8], the system named is Mus musculus. Kind of series: Antinociceptive activity in CFA-induced arthritic pain Swiss mouse model assessed as inhibition of mechanical hyperalgesia by measuring paw withdrawal threshold at 300 mg/kg administered via oral gavage measured at 2 hrs post dose by Von Frey filament assay relative to control. Type of series: functional.
For series [9], the system named is Mus musculus. Put plainly: Antinociceptive activity in CFA-induced arthritic pain Swiss mouse model assessed as inhibition of mechanical hyperalgesia by measuring paw withdrawal threshold at 100 mg/kg administered via oral gavage measured up to 4 hrs post dose by Von Frey filament assay. In kind it is functional, organism-based.

The source made the active and inactive calls.

Take `Nc1nc2c(c(C(F)(F)F)n1)CCc1ccccc1-2`: the Activity is 22 with Mus musculus [1] and “Non-Toxic” with Mus musculus [2].
The term inhibition in vivo denotes the percentage by which the read-out fell short of the control. As for `FC(F)(F)c1nc(-n2cccc2)nc2c1CCc1ccccc1-2`, the inhibition in vivo at 100 mg/kg with Mus musculus [3] came out at 67%. The solubility result in [4] is reported as “Soluble”. The Activity in the series with Mus musculus [1] is given as 23; with Mus musculus [2], “Non-Toxic”.
For `CSc1nc2c(c(C(F)(F)F)n1)CCc1ccccc1-2`, the Activity in the series on Mus musculus [1] is 23; in the series with Mus musculus [2] it was “Non-Toxic”.
`FC(F)(F)c1ncnc2c1CCc1ccccc1-2`: the solubility entry in series [4] is reported as “Insoluble”.
As to `Cc1nc2c(c(C(F)(F)F)n1)CCc1ccccc1-2`, the solubility entry in [4] is reported as “Insoluble”.
Regarding `FC(F)(F)c1nc(-c2ccccc2)nc2c1CCc1ccccc1-2`, the inhibition in vivo at 100 mg/kg with Mus musculus [3] was determined as 65%. Also, in the series with Mus musculus [5], the ED50 worked out at 241 mg/kg and the minimal effective dose stood at 100 mg/kg. Moreover, the solubility result in [4] is given as “Soluble”. Besides, the Imax in the series with Mus musculus [6] is given as 64 - 71%. The Activity in the series with Mus musculus [1] was 25. Further, the inhibition entry in the series on Mus musculus [7] is “Active”. In the series on Mus musculus [2], the Activity result was “Non-Toxic”.
Regarding `CC(C(=O)O)c1cccc(C(=O)c2ccccc2)c1` (stereo unspecified) [KETOPROFEN], the Imax with Mus musculus [8] is reported as 75%; in the series on Mus musculus [6], 70%. Also, in the series with Mus musculus [3], the inhibition in vivo at 100 mg/kg was determined as 81%. For the same compound, the ED50 with Mus musculus [5] worked out at 144 mg/kg. For the same compound, the minimal effective dose in the series on Mus musculus [5] fell in the range of 100 to 300 mg/kg. Besides, the Activity with Mus musculus [1] is listed as 38; in the series on Mus musculus [2] it was “Non-Toxic”. For the same compound, the inhibition result with Mus musculus [9] was “Active”.
